Where a chain is given by its changes, count along the chain named. Read-outs that look alike come from different tables or passages of the source. Values belong to the compound of their own block, whether it stands above or below them.
Experiments:
[1] = biological target: T1, AncCR (synthetic construct, UniProt Z9R9E8A6B0, V46A/S74C/R119H, form not given); experiment: luciferase reporter gene activation (Gal4DBD-LBD); format: cell-based; conditions: CHO-K1 cells, agonist, one day, triplicate; error is SE
T1 construct: LBD fused to Gal4 DBD in pSG5; CHO-K1 cells with UAS-luciferase
T1 sequence (Z9R9E8A6B0 4-249 V46A/S74C/R119H): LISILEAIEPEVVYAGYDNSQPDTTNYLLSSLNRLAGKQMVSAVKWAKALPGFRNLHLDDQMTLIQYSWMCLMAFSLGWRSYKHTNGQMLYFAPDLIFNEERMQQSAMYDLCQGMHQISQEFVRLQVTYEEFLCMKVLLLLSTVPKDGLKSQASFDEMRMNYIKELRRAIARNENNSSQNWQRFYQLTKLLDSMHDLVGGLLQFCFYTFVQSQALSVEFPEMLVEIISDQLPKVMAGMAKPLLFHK
Source text: (§1) luciferase reporter gene activation (Gal4DBD-LBD) on AncCR

[2] = biological target: T2, AncCR (synthetic construct, UniProt Z9R9E8A6B0); experiment: luciferase reporter gene activation (Gal4DBD-LBD); format: cell-based; conditions: CHO-K1 cells, agonist, one day, triplicate; error is SE
T2 construct: LBD fused to Gal4 DBD in pSG5; CHO-K1 cells with UAS-luciferase
T2 sequence (Z9R9E8A6B0 4-249): T1 sequence (Z9R9E8A6B0 4-249 V46A/S74C/R119H) with A43V, C71S, H116R
Source text: as §1

[3] = biological target: T3, AncCR (synthetic construct, UniProt Z9R9E8A6B0, V46A/R119H, form not given); experiment: luciferase reporter gene activation (Gal4DBD-LBD); format: cell-based; conditions: CHO-K1 cells, agonist, one day, triplicate; error is SE
T3 construct: LBD fused to Gal4 DBD in pSG5; CHO-K1 cells with UAS-luciferase
T3 sequence (Z9R9E8A6B0 4-249 V46A/R119H): T1 sequence (Z9R9E8A6B0 4-249 V46A/S74C/R119H) with C71S
Source text: as §1

[4] = biological target: T4, AncCR (synthetic construct, UniProt Z9R9E8A6B0, V46A/S74C, form not given); experiment: luciferase reporter gene activation (Gal4DBD-LBD); format: cell-based; conditions: CHO-K1 cells, agonist, one day, triplicate; error is SE
T4 construct: LBD fused to Gal4 DBD in pSG5; CHO-K1 cells with UAS-luciferase
T4 sequence (Z9R9E8A6B0 4-249 V46A/S74C): T1 sequence (Z9R9E8A6B0 4-249 V46A/S74C/R119H) with H116R
Source text: as §1

[5] = biological target: T5, AncCR (synthetic construct, UniProt Z9R9E8A6B0, L4M/S74C, form not given); experiment: luciferase reporter gene activation (Gal4DBD-LBD); format: cell-based; conditions: CHO-K1 cells, agonist, one day, triplicate; error is SE
T5 construct: LBD fused to Gal4 DBD in pSG5; CHO-K1 cells with UAS-luciferase
T5 sequence (Z9R9E8A6B0 4-249 L4M/S74C): T1 sequence (Z9R9E8A6B0 4-249 V46A/S74C/R119H) with L1M, A43V, H116R
Source text: as §1

[6] = biological target: T6, AncCR (synthetic construct, UniProt Z9R9E8A6B0, S74C/Q116K, form not given); experiment: luciferase reporter gene activation (Gal4DBD-LBD); format: cell-based; conditions: CHO-K1 cells, agonist, one day, triplicate; error is SE
T6 construct: LBD fused to Gal4 DBD in pSG5; CHO-K1 cells with UAS-luciferase
T6 sequence (Z9R9E8A6B0 4-249 S74C/Q116K): T1 sequence (Z9R9E8A6B0 4-249 V46A/S74C/R119H) with A43V, Q113K, H116R
Source text: as §1

[7] = biological target: T7, AncCR (synthetic construct, UniProt Z9R9E8A6B0, S74C/K86Q, form not given); experiment: luciferase reporter gene activation (Gal4DBD-LBD); format: cell-based; conditions: CHO-K1 cells, agonist, one day, triplicate; error is SE
T7 construct: LBD fused to Gal4 DBD in pSG5; CHO-K1 cells with UAS-luciferase
T7 sequence (Z9R9E8A6B0 4-249 S74C/K86Q): T1 sequence (Z9R9E8A6B0 4-249 V46A/S74C/R119H) with A43V, K83Q, H116R
Source text: as §1

[8] = biological target: T8, AncCR (synthetic construct, UniProt Z9R9E8A6B0, S74C/Q214E, form not given); experiment: luciferase reporter gene activation (Gal4DBD-LBD); format: cell-based; conditions: CHO-K1 cells, agonist, one day, triplicate; error is SE
T8 construct: LBD fused to Gal4 DBD in pSG5; CHO-K1 cells with UAS-luciferase
T8 sequence (Z9R9E8A6B0 4-249 S74C/Q214E): T1 sequence (Z9R9E8A6B0 4-249 V46A/S74C/R119H) with A43V, H116R, Q211E
Source text: as §1

[9] = biological target: T9, AncCR (synthetic construct, UniProt Z9R9E8A6B0, S74C/R119H, form not given); experiment: luciferase reporter gene activation (Gal4DBD-LBD); format: cell-based; conditions: CHO-K1 cells, agonist, one day, triplicate; error is SE
T9 construct: LBD fused to Gal4 DBD in pSG5; CHO-K1 cells with UAS-luciferase
T9 sequence (Z9R9E8A6B0 4-249 S74C/R119H): T1 sequence (Z9R9E8A6B0 4-249 V46A/S74C/R119H) with A43V
Source text: as §1

[10] = biological target: T10, AncCR (synthetic construct, UniProt Z9R9E8A6B0, S74C/A110S, form not given); experiment: luciferase reporter gene activation (Gal4DBD-LBD); format: cell-based; conditions: CHO-K1 cells, agonist, one day, triplicate; error is SE
T10 construct: LBD fused to Gal4 DBD in pSG5; CHO-K1 cells with UAS-luciferase
T10 sequence (Z9R9E8A6B0 4-249 S74C/A110S): T1 sequence (Z9R9E8A6B0 4-249 V46A/S74C/R119H) with A43V, A107S, H116R
Source text: as §1

[11] = biological target: T11, AncCR (synthetic construct, UniProt Z9R9E8A6B0, S74C, form not given); experiment: luciferase reporter gene activation (Gal4DBD-LBD); format: cell-based; conditions: CHO-K1 cells, agonist, one day, triplicate; error is SE
T11 construct: LBD fused to Gal4 DBD in pSG5; CHO-K1 cells with UAS-luciferase
T11 sequence (Z9R9E8A6B0 4-249 S74C): T1 sequence (Z9R9E8A6B0 4-249 V46A/S74C/R119H) with A43V, H116R
Source text: as §1

[12] = biological target: T12, Leri GR (Leucoraja erinaceus, UniProt Q1KXY4); experiment: cell-based; parameters: species or system CHO-K1; Gal4DBD-LBD UAS-driven luciferase reporter transactivation, Dual-Glo read-out
T12 construct: LBD fused to Gal4 DBD in pSG5; CHO-K1 cells with UAS-luciferase
T12 sequence (Q1KXY4 1-317): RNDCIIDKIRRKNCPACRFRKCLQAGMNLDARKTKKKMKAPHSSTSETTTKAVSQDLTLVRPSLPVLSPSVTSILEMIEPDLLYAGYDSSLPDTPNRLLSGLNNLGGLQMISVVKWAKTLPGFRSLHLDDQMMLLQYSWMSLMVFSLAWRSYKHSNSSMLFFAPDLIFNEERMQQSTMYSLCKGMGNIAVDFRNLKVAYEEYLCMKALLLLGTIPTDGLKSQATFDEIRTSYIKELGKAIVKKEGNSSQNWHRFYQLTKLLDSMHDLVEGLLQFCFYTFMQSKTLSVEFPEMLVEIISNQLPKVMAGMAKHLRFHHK
Experimental: LBDs were cloned as fusion proteins into a pSG5-Gal4DBD expression vector (gift of D. Furlow) and cotransfected using Lipofectamine and Plus Reagents (Invitrogen, Carlsbad, CA) with a UAS-driven luciferase reporter gene (pFRluc) into mammalian cell culture (CHO-K1), and grown in phenol red-free α-MEM plus 10% dextran-charcoal-stripped fetal bovine serum (Hyclone, Logan, UT). Cells were incubated with transfection reagents for four hours, after which they were treated with fresh medium; after recovery, cells were treated in triplicate with hormone or vehicle control, and incubated for one day. Reporter expression was measured using Dual-Glo (Promega, Madison, WI) and dose-response relationships analyzed using Prism4 (GraphPad, La Jolla, CA). Site-directed mutagenesis was carried out using QuickChange II (Stratagene, La Jolla, CA) and clones verified by DNA sequencing. Plausible alternate states were defined as non-maximum likelihood amino acid states with posterior probability >0.20; we reasoned that residues that are present in one or more extant high-sensitivity receptors are the most likely to increase receptor sensitivity, whereas those that are present only in low-sensitivity receptors are unlikely to confer high sensitivity. Each such alternate state was introduced singly into the ML AncGR1.1, and the experimental characterization was repeated. We used a luciferase reporter gene expression assay to characterize the sensitivity of each LBD to four major corticosteroids present in elasmobranchs – 11-deoxycorticosterone (DOC), corticosterone, 1alpha-hydroxycorticosterone, and 11-dehydrocorticosterone, [35]. […] All hormone-activated cartilaginous fish GRs were most sensitive to DOC and corticosterone. The receptors had EC50 values (the hormone concentration required to elicit half-maximal activation) for these steroids in the 10^−8 to 10^−6 M range (Figure 2, Table S1), typical of the EC50s of bony fish GRs for glucocorticoids but two to four orders of magnitude greater than AncCR or the MRs of bony vertebrates. […]

SMILES: C[C@]12CC[C@H]3[C@@H](CCC4=CC(=O)CC[C@@]43C)[C@@H]1CC[C@@H]2C(=O)CO [DOC, 11-deoxycorticosterone]
- log EC50 ^b [1]: −6.418 ± 0.06 log10 M
- log EC50 ^b [2]: −10.690 ± 0.64 log10 M
- log EC50 ^b [3]: −8.387 ± 0.54 log10 M
- log EC50 ^b [4]: −8.443 ± 0.15 log10 M
- log EC50 ^b [5]: −10.250 ± 0.30 log10 M
- log EC50 ^b [6]: −9.773 ± 0.43 log10 M
- log EC50 ^b [7]: −10.330 ± 0.41 log10 M
- log EC50 ^b [8]: −10.170 ± 0.43 log10 M
- log EC50 ^b [9]: −8.812 ± 0.28 log10 M
- log EC50 ^b [10]: −10.350 ± 0.24 log10 M
- log EC50 ^b [11]: −10.870 ± 0.34 log10 M
- EC50 ([12]; read-out: DOC log EC50 (converted)): 305 nM

- EC50 ([12]; read-out: B log EC50 (converted)): 28.3 nM
SMILES: C[C@]12C[C@H](O)[C@H]3[C@@H](CCC4=CC(=O)CC[C@@]43C)[C@@H]1CC[C@@H]2C(=O)CO [B, corticosterone]

- EC50 ([12]; read-out: 1α-B log EC50 (converted)): 2000 nM
SMILES: C[C@]12C[C@H](O)[C@H]3[C@@H](CCC4=CC(=O)C[C@H](O)[C@@]43C)[C@@H]1CC[C@@H]2C(=O)CO [1α-B, 1α-hydroxycorticosterone]

From paper PMC3116920, “Mechanisms for the Evolution of a Derived Function in the Ancestral Glucocorticoid Receptor” (PLoS Genetics, 2011)
